Consider 4 compounds from patent US8039639B2, “Kinase inhibitors and methods of use thereof” (Array BioPharma Inc., priority 2006, dated 2011).

One data set has as its system K562 cells. Kind of data set: K562 subcutaneous tumor model (BCR-Abl-driven tumors). The following applies: K562 tumors, PO ×7, dosed as Compound 74. Type of data set: in vivo, Female Scid-beige mice. The procedure:
Test compounds were administered by oral gavage at the indicated doses and schedules when tumors reached 200±50 mm^3 in size. […] Tumor size and body weight were monitored throughout the study.

A short description of another data set: Solubility determination. Type of data set: physicochemical.
The next data set has as its target p38α (Homo sapiens, UniProt Q16539). Put plainly: in-house p38α radioactive kinase assay using ATF-2 as a substrate. Type of data set: biochemical. The conditions noted are these: ATF-2 substrate. As to the method: p38 activity was assayed at room temperature in a 100 μL reaction containing 5 nM activated p38α enzyme and 1 μM ATF-2 (Activating Transcription Factor 2 fusion protein) as the substrate in 25 mM HEPES (pH 7.4), 100 μM Vanadate, 1 mM DTT, 10 mM MgCl2 and 10 μM [γ-^33P]-ATP (˜0.1 μCi P^33/reaction). The reaction was terminated after 30-40 minutes by adding 25% TCA, allowed to stand for 5 minutes, and then transferred directly to a GF-B membrane filter plate. The filter was washed twice for 30 seconds with 0.5% phosphoric acid using a Tomtec Mach III Automated Harvestor. After washing, the vacuum was continued for 30 seconds to dry the filter. Approximately 30 μL of scintillant was added per well to the filter plate and then read in a Liquid Scintillation Counter (Packard TopCount HTS).

The target of another data set is Tie2 (Homo sapiens, UniProt Q02763). Put plainly: protein kinase IC50 determination (ATP at Km). The conditions noted are these: ATP concentration at Km. Type of data set: biochemical.
Chain of Tie2 (Q02763 23-1124, species assumed): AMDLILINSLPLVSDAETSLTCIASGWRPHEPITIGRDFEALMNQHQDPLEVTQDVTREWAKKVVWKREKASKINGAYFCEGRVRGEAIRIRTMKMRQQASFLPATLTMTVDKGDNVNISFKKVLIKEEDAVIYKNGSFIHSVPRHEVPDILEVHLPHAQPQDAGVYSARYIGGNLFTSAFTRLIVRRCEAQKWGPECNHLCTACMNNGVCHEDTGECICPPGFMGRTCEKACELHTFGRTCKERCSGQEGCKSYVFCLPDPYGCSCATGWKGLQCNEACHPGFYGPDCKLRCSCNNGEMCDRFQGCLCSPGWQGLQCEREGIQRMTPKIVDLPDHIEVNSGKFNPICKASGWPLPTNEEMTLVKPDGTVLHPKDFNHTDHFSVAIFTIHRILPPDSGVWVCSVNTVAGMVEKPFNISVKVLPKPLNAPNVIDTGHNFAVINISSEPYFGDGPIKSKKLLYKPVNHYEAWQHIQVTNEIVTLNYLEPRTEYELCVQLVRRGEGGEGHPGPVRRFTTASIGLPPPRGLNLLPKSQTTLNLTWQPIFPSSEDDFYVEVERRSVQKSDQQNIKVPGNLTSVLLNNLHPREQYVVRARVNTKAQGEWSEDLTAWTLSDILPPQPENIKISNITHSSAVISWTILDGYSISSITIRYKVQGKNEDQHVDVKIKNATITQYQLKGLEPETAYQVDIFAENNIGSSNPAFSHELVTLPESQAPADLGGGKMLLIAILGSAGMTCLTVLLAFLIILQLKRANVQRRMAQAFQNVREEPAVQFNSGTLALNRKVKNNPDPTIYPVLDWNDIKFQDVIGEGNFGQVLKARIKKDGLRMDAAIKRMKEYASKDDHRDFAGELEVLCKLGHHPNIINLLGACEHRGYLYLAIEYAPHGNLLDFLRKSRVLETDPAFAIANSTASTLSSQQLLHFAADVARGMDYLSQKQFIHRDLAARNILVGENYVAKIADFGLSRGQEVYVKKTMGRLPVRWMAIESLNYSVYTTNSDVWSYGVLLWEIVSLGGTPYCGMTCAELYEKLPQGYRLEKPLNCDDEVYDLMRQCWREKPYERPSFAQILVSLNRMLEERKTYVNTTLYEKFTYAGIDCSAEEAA
Another data set deals with Abl (Homo sapiens, UniProt P00519). Put plainly: protein kinase IC50 determination (ATP at Km). The conditions noted are these: ATP concentration at Km. The class given is biochemical.
Chain of Abl (P00519 whole entry, species assumed): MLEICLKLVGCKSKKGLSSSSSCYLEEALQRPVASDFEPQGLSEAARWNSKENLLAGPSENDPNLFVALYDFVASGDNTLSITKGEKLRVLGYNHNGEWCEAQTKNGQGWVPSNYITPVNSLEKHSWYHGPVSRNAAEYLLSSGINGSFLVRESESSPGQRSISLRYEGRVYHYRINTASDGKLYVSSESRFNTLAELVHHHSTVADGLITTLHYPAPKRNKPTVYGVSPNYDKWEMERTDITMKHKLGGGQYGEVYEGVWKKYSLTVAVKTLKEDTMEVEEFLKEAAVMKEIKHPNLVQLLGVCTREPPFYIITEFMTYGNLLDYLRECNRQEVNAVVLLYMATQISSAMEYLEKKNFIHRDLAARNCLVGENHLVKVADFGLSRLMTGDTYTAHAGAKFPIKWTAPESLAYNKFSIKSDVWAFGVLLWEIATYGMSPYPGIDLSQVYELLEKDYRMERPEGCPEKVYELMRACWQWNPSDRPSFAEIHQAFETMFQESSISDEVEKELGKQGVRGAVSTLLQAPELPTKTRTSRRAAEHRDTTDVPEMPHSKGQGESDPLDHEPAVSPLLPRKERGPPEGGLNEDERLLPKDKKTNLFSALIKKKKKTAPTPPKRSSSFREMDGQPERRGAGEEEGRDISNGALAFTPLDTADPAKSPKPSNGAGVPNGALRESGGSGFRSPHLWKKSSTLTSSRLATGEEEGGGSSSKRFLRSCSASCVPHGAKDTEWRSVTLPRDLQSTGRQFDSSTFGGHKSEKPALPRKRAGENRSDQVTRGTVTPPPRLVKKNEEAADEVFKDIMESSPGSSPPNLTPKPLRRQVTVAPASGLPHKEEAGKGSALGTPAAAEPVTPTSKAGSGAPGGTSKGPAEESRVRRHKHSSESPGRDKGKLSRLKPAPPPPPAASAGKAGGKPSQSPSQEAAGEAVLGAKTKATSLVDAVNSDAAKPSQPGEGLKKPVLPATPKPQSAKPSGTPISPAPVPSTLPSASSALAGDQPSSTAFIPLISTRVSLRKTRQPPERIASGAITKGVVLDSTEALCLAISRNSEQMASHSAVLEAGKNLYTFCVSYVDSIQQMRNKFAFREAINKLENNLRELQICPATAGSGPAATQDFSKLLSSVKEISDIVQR
Another data set deals with RPMI 8226. Kind of data set: RPMI 8226 cell viability (CellTiter Blue). The following applies: Homo sapiens; RPMI 8226, 72 hours; read-out: Proliferation IC50. The class given is cell-based. As to the method:
Cell viability was then measured using CellTiter Blue (Promega) to determine IC50 values for each compound (Table 8). […] MG-132 produced an IC50 that was within historical ranges of in-house testing (Table 8).
A general note: Alamar Blue is a resazurin reagent that responds to reducing activity.

One may read the solubility as how much of the substance goes into solution per volume.

Residues, ends and D or L forms follow the SMILES beside them. *: point of attachment. Cbz = O=C(OCc1ccccc1)*

Chain of p38α (Q16539 whole entry, the tested form may be a part): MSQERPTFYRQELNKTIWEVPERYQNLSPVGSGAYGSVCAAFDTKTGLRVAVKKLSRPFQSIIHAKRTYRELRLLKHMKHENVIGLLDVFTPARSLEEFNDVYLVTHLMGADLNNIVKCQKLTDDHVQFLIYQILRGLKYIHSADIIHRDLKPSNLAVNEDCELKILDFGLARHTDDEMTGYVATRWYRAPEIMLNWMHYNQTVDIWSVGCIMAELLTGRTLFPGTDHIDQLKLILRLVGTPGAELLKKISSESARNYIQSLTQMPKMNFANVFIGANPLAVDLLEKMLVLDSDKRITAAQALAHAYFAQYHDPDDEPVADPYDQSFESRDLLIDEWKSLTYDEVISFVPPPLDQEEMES

Consider `Cc1ccc(-n2nc(C(C)(C)C)cc2NC(=O)NCc2cc(F)ccc2Oc2ccc3c(cnn3CCOP(=O)(O)O)c2)cc1` [Compound 74, 2-(5-(2-(3-(3-tert-butyl-1-p-tolyl-1H-pyrazol-5-yl)ureido)methyl)-4-fluorophenoxy)-1H-indazol-1-yl)ethyl dihydrogenphosphate], for which the “% Regression” value is “tumor stasis” with K562 cells (30 mg/kg BID), 94% with K562 cells (100 mg/kg BID) and “tumor stasis” with K562 cells (100 mg/kg QD). Besides, the solubility in the data set “Solubility determination” (pH 1.2, simulated gastric fluid) is < 1000 µg/mL.

With `Cc1ccc(-n2nc(C(C)(C)C)cc2NC(=O)NCc2cc(F)ccc2Oc2ccc3c(cnn3C)c2)cc1` [Example 94], the IC50 is < 0.002 µM on p38α, 0.004 µM against Tie2 and 0.01 µM against Abl. Also, the solubility in “Solubility determination” (pH 6.5, aqueous buffer) is < 1 µg/mL; in “Solubility determination” (pH 7.4, aqueous buffer) it was < 1 µg/mL.

Regarding `Cn1nc(C(C)(C)C)cc1NC(=O)NCc1cc(F)ccc1Oc1ccc2c(cnn2CC(C)(C)O)c1` [Example 138], the results for the IC50 at p38α, against Tie2 and against Abl were < 0.002 µM, > 0.5 µM and > 0.5 µM, respectively. Also, the solubility is < 1 µg/mL in “Solubility determination” (pH 6.5, aqueous buffer) and < 1 µg/mL in the data set “Solubility determination” (pH 7.4, aqueous buffer).

Turning to `CC(C)C[C@@H](C=O)NC(=O)[C@H](CC(C)C)NC(=O)[C@H](CC(C)C)NC(=O)OCc1ccccc1` [MG-132, reference compound] (Cbz-Leu-Leu-Leu-aldehyde), the IC50 with RPMI 8226 was 0.114 µM.
